Measurements taken from patent publication US8648079B2, “Heterocyclic compounds” (Takeda Pharmaceutical Company Limited, priority 2011, dated 2014).

system: APP/PS1 double transgenic mouse; assay: Y-maze test using APP/PS1 double transgenic mouse (spontaneous alternation behavior); format: in vivo; conditions: 10 mg/kg orally once a day, Y-maze at 16 hours after the 13th administration
Protocol: Animals used were 3-month-old female APP/PS1 double transgenic mice (10-15 mice/group). A test compound was suspended in a 0.5% aqueous methylcellulose [133-14255 WAKO] solution (1 mg/mL). The body weight of the mice was measured, and the solution was forcibly administered orally and repeatedly once a day for 14 days. At 16 hours after the 13th administration, spontaneous alternation behavior in Y-maze test was evaluated. Using a particular arm of a Y-shaped test apparatus as the starting point, the frequency of moving to a different arm was counted for 5 min. The first two times of entry were excluded from the total number of entry. In addition, the mice that entered less than 10 times in total were excluded. Movement to an arm different from the arm into which the mouse entered last but one was considered an alternation behavior, and the ratio to the total number of moving was calculated as a spontaneous alternation behavior rate. As comparison subjects, a control group (test compound-non treatment group) and a control group in wild-type mice were used.

Compound | Spontaneous alternation behavior rate (%)
O=C(c1cccnc1-c1ccncc1)N1CCC(O)(Cc2ccccc2)CC1 [Example 44, (4-benzyl-4-hydroxypiperidin-1-yl)(2,4′-bipyridin-3-yl)methanone] | 71
O=C(c1cccnc1-c1ccncn1)N1CCC(O)(Cc2ccc(F)cc2)CC1 [Example 92, (4-(4-fluorobenzyl)-4-hydroxypiperidin-1-yl)(2-(pyrimidin-4-yl)pyridin-3-yl)methanone] | 62

same assay, conditions: 30 mg/kg orally once a day, Y-maze at 16 hours after the 13th administration

Compound | Spontaneous alternation behavior rate (%)
O=C(c1cccnc1-c1ccncc1)N1CCC(O)(Cc2ccccc2)CC1 [Example 44, (4-benzyl-4-hydroxypiperidin-1-yl)(2,4′-bipyridin-3-yl)methanone] | 71
O=C(c1cccnc1-c1ccncn1)N1CCC(O)(Cc2ccc(F)cc2)CC1 [Example 92, (4-(4-fluorobenzyl)-4-hydroxypiperidin-1-yl)(2-(pyrimidin-4-yl)pyridin-3-yl)methanone] | 72

target: T1, human CH24H (Homo sapiens, UniProt Q9Y6A2); assay: Measurement of CH24H inhibitory activity (24-HC produced from [14C] cholesterol by human CH24H lysate); format: biochemical; conditions: 1 μM test compound, [14C] cholesterol 15 μM, 37° C., 5 hr, read-out: Inhibitory rate (%) at 1 μM
T1 construct: Using Full-Length Mammalian Gene Collection No. 4819975 (Invitrogen) as a template; made in house; host or cells: FreeStyle 293-F cells (transient transfection with pcDNA3.1(+)/hCH24H); crude lysate supernatant
T1 sequence (Q9Y6A2 whole entry): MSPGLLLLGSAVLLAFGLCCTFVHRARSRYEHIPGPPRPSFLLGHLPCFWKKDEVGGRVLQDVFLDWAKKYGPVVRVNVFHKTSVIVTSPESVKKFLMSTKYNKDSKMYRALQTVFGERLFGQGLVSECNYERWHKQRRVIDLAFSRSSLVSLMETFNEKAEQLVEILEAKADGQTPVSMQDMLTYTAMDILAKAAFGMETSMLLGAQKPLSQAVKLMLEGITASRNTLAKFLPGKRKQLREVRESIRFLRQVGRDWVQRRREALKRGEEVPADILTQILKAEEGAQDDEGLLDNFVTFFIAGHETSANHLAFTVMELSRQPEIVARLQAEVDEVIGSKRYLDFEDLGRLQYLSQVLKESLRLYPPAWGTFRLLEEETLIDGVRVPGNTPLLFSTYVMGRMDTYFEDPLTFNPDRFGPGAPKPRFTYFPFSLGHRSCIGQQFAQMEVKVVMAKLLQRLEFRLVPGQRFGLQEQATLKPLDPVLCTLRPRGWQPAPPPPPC
Protocol: The expression of human CH24H was performed using FreeStyle 293 Expression System (Invitrogen). According to the manual attached to FreeStyle 293 Expression System and using the plasmid DNA (pcDNA3.1(+)/hCH24H) for human CH24H expression constructed in Experimental Example 1, a transient expression using FreeStyle 293-F cell was performed. After transfection, the cells were cultured with shaking at 37° C., 8% CO2, 125 rpm for 2 days. The cells were collected by centrifugation, and suspended in a buffer for suspension (100 mM potassium phosphate (pH 7.4), 0.1 mM EDTA, 1 mM DTT, 20% Glycerol). The suspended product was disrupted by a polytron homogenizer (manufactured by Kinematica), and centrifuged at 9000×g for 10 min, and the supernatant was collected. The collected supernatant was cryopreserved (−80° C.) as a human CH24H lysate standard product.
For the measurement of CH24H inhibitory activity, using the human CH24H lysate prepared in Experimental Example 2, the amount of 24-HC produced from cholesterol by catalysis of CH24H was measured in the presence of a test compound, and the amount was compared with that in the absence of the test compound. That is, a test compound solution at various concentrations were mixed with a reaction buffer (50 mM potassium phosphate containing 0.1% BSA and Complete, EDTA-free protease inhibitor cocktail, pH 7.4) and human CH24H lysate. Then, [^14C] cholesterol (53 mCi/mmol specific activity, 15 μM) was added, and CH24H reaction was performed at 37° C. for 5 hr. After completion of the reaction, a quenching solution consisting of chloroform/methanol/distillation water (2:2:1 v/v) was added, and the resulting 24-HC was extracted by shaking. The extract was applied to silica gel thin layer chromatography (ethyl acetate:toluene=4:6), and the obtained ^14C-24HC fraction was measured with BAS2500 (Fujifilm Corporation).
The inhibitory rate (%) was calculated from the ratio of radioactivity in the presence of a test compound relative to the radioactivity in the absence of the test compound.

Compound | inhibition at 1 µM [%]
O=C(c1c(C(F)(F)F)n[nH]c1-c1ccncc1)N1CCC(O)(Cc2ccccc2)CC1 [Example 41, (4-benzyl-4-hydroxypiperidin-1-yl)(5-(pyridin-4-yl)-3-(trifluoromethyl)-1H-pyrazol-4-yl)methanone] | 93
O=C(c1ccc(F)cc1-c1ccncn1)N1CCC(O)(Cc2ccccn2)CC1 [Example 63, (4-fluoro-2-(pyrimidin-4-yl)phenyl)(4-hydroxy-4-(pyridin-2-ylmethyl)piperidin-1-yl)methanone] | 82
O=C(c1cccnc1-c1ccncn1)N1CCC(O)(Cc2ccc(F)cc2F)CC1 [Example 105, (4-(2,4-difluorobenzyl)-4-hydroxypiperidin-1-yl)(2-(pyrimidin-4-yl)pyridin-3-yl)methanone] | 95
O=C(c1cccnc1-c1ccncn1)N1CCC(O)(Cc2ccccc2)CC1 [Example 54, (4-benzyl-4-hydroxypiperidin-1-yl)(2-(pyrimidin-4-yl)pyridin-3-yl)methanone] | 90
O=C(c1scnc1-c1ccncc1)N1CCC(O)(Cc2ccccc2)CC1 [Example 26, (4-benzyl-4-hydroxypiperidin-1-yl)(4-(pyridin-4-yl)-1,3-thiazol-5-yl)methanone] | 92
Cc1nc(-c2ccncn2)c(C(=O)N2CCC(O)(Cc3ccccc3)CC2)s1 [Example 60, (4-benzyl-4-hydroxypiperidin-1-yl)(2-methyl-4-(pyrimidin-4-yl)-1,3-thiazol-5-yl)methanone] | 82
O=C(c1cc(F)c(F)cc1-c1ccncn1)N1CCC(O)(Cc2ccccn2)CC1 [Example 56, (4,5-difluoro-2-(pyrimidin-4-yl)phenyl)(4-hydroxy-4-(pyridin-2-ylmethyl)piperidin-1-yl)methanone] | 90
O=C(c1cccnc1-c1ccncc1)N1CCC(O)(Cc2ccccc2)CC1 [Example 44, (4-benzyl-4-hydroxypiperidin-1-yl)(2,4′-bipyridin-3-yl)methanone] | 95
O=C(c1ccccc1-c1ccncn1)N1CCC(O)(Cc2ccccc2)CC1 [Example 14, (4-benzyl-4-hydroxypiperidin-1-yl)(2-(pyrimidin-4-yl)phenyl)methanone] | 92
O=C(c1ccccc1-c1ccncn1)N1CCC(O)(Cc2ccccn2)CC1 [Example 34, (4-hydroxy-4-(pyridin-2-ylmethyl)piperidin-1-yl)(2-(pyrimidin-4-yl)phenyl)methanone] | 90
O=C(c1cccnc1-c1ccncn1)N1CCC(O)(Cc2ccc(F)cc2)CC1 [Example 92, (4-(4-fluorobenzyl)-4-hydroxypiperidin-1-yl)(2-(pyrimidin-4-yl)pyridin-3-yl)methanone] | 88
O=C(c1ccccc1-c1cnco1)N1CCC(O)(Cc2ccc(F)cc2F)CC1 [Example 102, (4-(2,4-difluorobenzyl)-4-hydroxypiperidin-1-yl)(2-(1,3-oxazol-5-yl)phenyl)methanone] | 89
N#Cc1ccc(CC2(O)CCN(C(=O)c3cccnc3-c3ccncc3)CC2)cc1 [Example 70, 4-((1-(2,4′-bipyridin-3-ylcarbonyl)-4-hydroxypiperidin-4-yl)methyl)benzonitrile] | 89
O=C(c1ccccc1-c1cnco1)N1CCC(O)(Cc2ccccc2)CC1 [Example 82, (4-benzyl-4-hydroxypiperidin-1-yl)(2-(1,3-oxazol-5-yl)phenyl)methanone] | 87

The remaining lines, values ahead:

inhibition at 1 µM [%] | Compound
90 | Cc1noc(-c2ccncc2)c1C(=O)N1CCC(O)(Cc2ccccc2)CC1 [Example 2, (4-benzyl-4-hydroxypiperidin-1-yl)(3-methyl-5-(pyridin-4-yl)-1,2-oxazol-4-yl)methanone]
89 | O=C(c1cccnc1-c1ccncc1)N1CCC(O)(Cc2ccc(F)cc2F)CC1 [Example 87, 2,4′-bipyridin-3-yl(4-(2,4-difluorobenzyl)-4-hydroxypiperidin-1-yl)methanone]
83 | COC1(Cc2ccccc2)CCN(C(=O)c2cc(C)ccc2-c2ccncc2)CC1 [Example 59, (4-benzyl-4-methoxypiperidin-1-yl)(5-methyl-2-(pyridin-4-yl)phenyl)methanone]
87 | COc1ccc(CC2(O)CCN(C(=O)c3cccnc3-c3ccncc3)CC2)cc1 [Example 97, 2,4′-bipyridin-3-yl(4-hydroxy-4-(4-methoxybenzyl)piperidin-1-yl)methanone]
94 | O=C(c1ncsc1-c1ccncc1)N1CCC(O)(Cc2ccccc2)CC1 [Example 25, (4-benzyl-4-hydroxypiperidin-1-yl)(5-(pyridin-4-yl)-1,3-thiazol-4 yl)methanone]
89 | O=C(c1cccnc1-c1ccncc1)N1CCC(O)(Cc2ccc(F)cc2)CC1 [Example 67, 2,4′-bipyridin-3-yl(4-(4-fluorobenzyl)-4-hydroxypiperidin-1-yl)methanone]
90 | Cc1ccc(-c2ccncc2)c(C(=O)N2CCC(O)(CC3=NCCS3)CC2)c1 [Example 39, (4-(4,5-dihydro-1,3-thiazol-2-ylmethyl)-4-hydroxypiperidin-1-yl)(5-methyl-2-(pyridin-4-yl)phenyl)methanone]
87 | O=C(c1c(-c2ccncc2)ccc2c1OCO2)N1CCC(O)(Cc2ccccc2)CC1 [Example 9, (4-benzyl-4-hydroxypiperidin-1-yl)(5-(pyridin-4-yl)-1,3-benzodioxol-4-yl)methanone]
91 | O=C(c1ccc(F)cc1-c1ccncc1)N1CCC(O)(Cc2ccccn2)CC1 [Example 30, (4-fluoro-2-(pyridin-4-yl)phenyl)(4-hydroxy-4-(pyridin-2-ylmethyl)piperidin-1-yl)methanone]
84 | O=C(c1cc(F)ccc1-c1ccncn1)N1CCC(O)(Cc2ccccn2)CC1 [Example 58, (5-fluoro-2-(pyrimidin-4-yl)phenyl)(4-hydroxy-4-(pyridin-2-ylmethyl)piperidin-1-yl)methanone]
70 | Cc1ccc(-c2ccncc2)c(C(=O)N2CCC(O)(C(C)C)CC2)c1 [Example 5, (4-hydroxy-4-isopropylpiperidin-1-yl)(5-methyl-2-(pyridin-4-yl)phenyl)methanone]
89 | O=C(c1cccnc1-c1ccncc1)N1CCC(O)(Cc2ccc(F)c(F)c2)CC1 [Example 86, 2,4′-bipyridin-3-yl(4-(3,4-difluorobenzyl)-4-hydroxypiperidin-1-yl)methanone]
92 | Cn1ncc(-c2ccncc2)c1C(=O)N1CCC(O)(Cc2ccccc2)CC1 [Example 32, (4-benzyl-4-hydroxypiperidin-1-yl)(1-methyl-4-(pyridin-4-yl)-1H-pyrazol-5-yl)methanone]
92 | Cc1ccc(-c2ccncc2)c(C(=O)N2CCC(O)(Cc3ccccc3)CC2)c1 [Example 1, (4-benzyl-4-hydroxypiperidin-1-yl)(5-methyl-2-(pyridin-4-yl)phenyl)methanone]
